Results: patent publication US5489592A, “3,4-dihydro-4-oxo-3-(2-propenyl)-1-phthalazineacetic acids and derivatives, their preparations and medicines containing them” (Lipha, Lyonnaise Industrielle Pharmaceutique, priority 1991, dated 1996)

How the values were obtained:
aldose reductase = target: T1, aldose reductase (Rattus norvegicus, UniProt P07943); assay: In vitro study: inhibition of aldose reductase; format: biochemical, male Wistar rats; details: rat crystallin enzyme, NADPH, L-glyceraldehyde, 340 nm; confidence interval in parentheses
T1 construct: The aldose reductase used is obtained from crystallins from male Wistar rats; from tissue; host or cells: eye lens of male Wistar rats, enzymatic extract
Experimental: 1) In vitro study: inhibition of aldose reductase
The aldose reductase used is obtained from crystallins from male Wistar rats according to a modification of the method of S. Hayman et al. (Journal of Biological Chemistry, 240, p. 877, 1965). The enzymatic extract is diluted in a phosphate buffer in the presence of NADPH and of various concentrations of the products to be tested. The reaction is triggered by L-glyceraldehyde and the rate of reaction is measured by monitoring the disappearance of NADPH by spectrophotometry at 340 nm. The inhibition of the rate of reaction is calculated for each concentration of products and then the concentration necessary for a 50% inhibition (IC50) is evaluated by linear interpolation.

[1] = system: level of sorbitol in the crystallins; assay: In vivo study: reduction in the accumulation of sorbitol in streptozotocin-diabetic rats; design: species or system male Wistar rats; details: Rattus norvegicus, oral, 4, 30 and 52 h after streptozotocin (60 mg/kg i.v.), 50% reduction, confidence interval in parentheses
Experimental: 2) In vivo study: reduction in the accumulation of sorbitol
Male Wistar rats, weighing 200 to 250 g, are made diabetic by intravenous injection of streptozotocin (60 mg/kg). They then receive an oral treatment of the products to be tested, in the form of a 10% suspension in gum arabic, 4 hours, 30 hours and 52 hours after injection of streptozotocin. Eighteen hours after the last oral treatment, the rats are stunned and decapitated and their crystallins are then withdrawn. After extraction, the level of sorbitol in the crystallins is measured according to the enzymatic method described by H. U. Bergmeyer (Methods of Enzymatic Analysis, edited by H. U. Bergmeyer, Academic Press, New York, 3, p. 1323, 1974).
Various doses of products are tested and the inhibitions are calculated with respect to a control batch of diabetic rats. The dose necessary for a 50% reduction in the level of sorbitol is then evaluated by linear interpolation.

Structure (SMILES) | IC50 (aldose reductase) [nM] | ED50 [1] [mg/kg]
O=C(O)Cc1nn(C/C=C/c2cccc(C(F)(F)F)c2F)c(=O)c2ccccc12 [Example B1, (E) -3-[3-[2-fluoro-3-(trifluoromethyl)phenyl]-2-propenyl]-3,4-dihydro-4-oxo-1-phthalazineacetic acid] | 10.2 | 4.8
O=C(O)Cc1nn(C/C=C/c2c(F)ccc(Br)c2F)c(=O)c2ccccc12 [Example B40, (E) -3-[3-(3-bromo-2,6-difluorophenyl)-2-propenyl]-3,4-dihydro-4-oxo-1-phthalazineacetic acid] | 8.2 | 6.1
O=C(O)Cc1nn(C/C(F)=C/c2cccc(C(F)(F)F)c2)c(=O)c2ccccc12 [Example B49, (Z) -3-[2-fluoro-3-[3-(trifluoromethyl)phenyl]-2-propenyl]-3,4-dihydro-4-oxo-1-phthalazineacetic acid] | 8.4 | 8.2

Second part, led by results:

IC50 (aldose reductase) [nM] | Structure (SMILES) | ED50 [1] [mg/kg]
8.9 | O=C(O)Cc1nn(C/C=C/c2c(F)ccc(F)c2F)c(=O)c2ccccc12 [Example B38, (E) -3-[3-(2,3,6-trifluorophenyl)-2-propenyl]-3,4-dihydro-4-oxo-1-phthalazineacetic acid] | 4.7
8.6 | O=C(O)Cc1nn(C/C=C/c2c(F)ccc(C(F)(F)F)c2F)c(=O)c2ccccc12 [Example B41, (E) -3-[3-[2,6-difluoro-3-(trifluoromethyl)phenyl]-2-propenyl]-3,4-dihydro-4-oxo-1-phthalazineacetic acid] | 4.4
9.6 | O=C(O)Cc1nn(C/C=C/c2c(F)c(F)cc(F)c2F)c(=O)c2ccccc12 [Example B43, (E) -3-[3-(2,3,5,6-tetrafluorophenyl)-2-propenyl]-3,4-dihydro-4-oxo-1-phthalazineacetic acid] | 5.8
